Counter-ions that a name gives are not always drawn. Like-named read-outs stand apart in the source and are kept apart here.
Key:
[1] = target: T1, α-1b adrenoreceptor (hamster) (Mesocricetus auratus, UniProt P18841); assay: In vitro [3H]-prazosin radioligand binding, cloned α-1b adrenoreceptor expressed in LTK cells
T1 construct: expressed in transfected cells; cDNA from TULCO; membranes
T1 sequence (P18841 1-515): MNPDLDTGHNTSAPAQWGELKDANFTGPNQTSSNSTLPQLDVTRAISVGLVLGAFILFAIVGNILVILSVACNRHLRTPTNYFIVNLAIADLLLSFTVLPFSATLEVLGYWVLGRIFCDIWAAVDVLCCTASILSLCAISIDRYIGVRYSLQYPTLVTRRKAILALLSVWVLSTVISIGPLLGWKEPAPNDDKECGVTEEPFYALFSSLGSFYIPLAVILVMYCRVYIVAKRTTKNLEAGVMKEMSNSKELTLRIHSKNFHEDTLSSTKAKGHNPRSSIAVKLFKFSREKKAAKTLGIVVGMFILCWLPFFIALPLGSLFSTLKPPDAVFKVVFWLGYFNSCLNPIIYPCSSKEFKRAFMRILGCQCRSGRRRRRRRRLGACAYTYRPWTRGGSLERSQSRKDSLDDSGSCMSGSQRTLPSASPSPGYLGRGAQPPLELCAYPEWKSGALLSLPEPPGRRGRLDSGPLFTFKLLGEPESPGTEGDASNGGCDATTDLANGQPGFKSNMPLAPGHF
Text: (§1) The cDNA clones encoding the α-1 adrenoreceptors (α-1a, α-1b, and α-1d) were obtained from TULCO (Triangle Universities Licensing Consortium, Research Triangle Park, N.C.) and inserted into the eukaryotic expression vector SnaB30. In this vector, expression of the adrenoreceptor gene is under the transcriptional control of an SV40 early promoter. Positive drug selection is provided by a neomycin-resistance gene. Mouse fibroblast cells (LTK) were transfected with the α1 expression plasmids and grown in Dulbecco's modified Eagle's medium (DMEM) containing 10% fetal calf serum and […]. Stable G418-resistant parental lines were generated, with successful expression of adrenoreceptor protein monitored using radioligand binding techniques. Stable single cell clones derived from the parental lines were screened in adrenoreceptor binding assays to identify clones having high adrenoreceptor density. Roller bottle cultures of the cloned lines were used to provide cell membranes for subsequent adrenoreceptor binding characterization studies. A cell line containing the SnaB30 vector expressing the human erythropoietin gene served as a negative control.
(§2) For adrenoreceptor binding assays, large scale membrane preparations were utilized in which 6 million cells were seeded into small (450 cm^2) Corning tissue culture roller bottles. 200 mL of DMEM containing 10% fetal calf serum and 300 μM G418 were added to each roller bottle. A 95% air/5% CO2 gas mixture (sterile) was injected into each roller bottle prior to sealing. The bottles were then incubated at 37° C. on a roller rack for 5 days. Cells were re-fed with fresh medium after 3 days in culture.
(§3) On the fifth day of culture, growth medium was removed from cells grown in roller bottles, and the cells were washed twice with PBS (Sigma, 120 mM NaCl, 2.7 mM KCl, 10 mM Na2 HPO4 --NaH2 PO4, pH=7.4). Cells were detached from the roller bottles by incubating for 15 minutes at 37° C. in a Tris-EDTA solution (10 mM Tris, 100 mM NaCl, 1 mM EDTA, pH=7.4). The cell suspension from each roller bottle was decanted into tared centrifuge tubes and kept on ice. An aliquot of each cell suspension was generally taken for cell counting. Cells were centrifuged at 3000×G for 5 min at 2°-4° C., washed with PBS and recentrifuged. The supernatant was decanted and the pellet weighed to determine the wet weight of cells. Cells were washed a final time in 40 vol 5 mM Tris-HCl, 5 mM EDTA, pH=7.7, and centrifuged at 40,000×G for 10 minutes. Cells were homogenized in 10 mL of 50 mM Tris-HCl, 5 mM EDTA (pH=7.4) and diluted to 40 mL/tube. Homogenates were centrifuged at 40,000×G for 10 minutes. The supernatant was decanted and the pellets rehomogenized in 50 mM Tris-HCl (pH=7.4) and centrifuged as before. The supernatant was decanted and the homogenate resuspended in 6.25 volumes (per gram wet weight) of 50 mM Tris-HCl and aliquots of the pooled homogenates frozen in liquid N2 and stored at -70° C. until the time of assay. Rat submaxillary glands were used for α-1A adrenoreceptors and were prepared essentially as described (Michel, A. D., Loury, D. N. and Whiting, R. L., Brit. J. Pharmacol. 98: 83-889 (1989)).
(§4) Receptor binding assays for α-1 adrenoreceptors were performed essentially as described by Greengrass and Bremner (Eur. J. Pharmacol. 55: 323-326 (1979)). […] Radioactivity was determined by standard liquid scintillation techniques. Data were analyzed as previously described (Hancock, A. A., Kyncl, J. J., Martin, Y. C. and DeBernardis, J. F., J Receptor Res. 8: 23-46 (1988)).

[2] = target: T2, α-1d adrenoreceptor (rat) (Rattus norvegicus, UniProt P23944); assay: In vitro [3H]-prazosin radioligand binding, cloned α-1d adrenoreceptor expressed in LTK cells
T2 construct: expressed in transfected cells; cDNA from TULCO; membranes
T2 sequence (P23944 1-561): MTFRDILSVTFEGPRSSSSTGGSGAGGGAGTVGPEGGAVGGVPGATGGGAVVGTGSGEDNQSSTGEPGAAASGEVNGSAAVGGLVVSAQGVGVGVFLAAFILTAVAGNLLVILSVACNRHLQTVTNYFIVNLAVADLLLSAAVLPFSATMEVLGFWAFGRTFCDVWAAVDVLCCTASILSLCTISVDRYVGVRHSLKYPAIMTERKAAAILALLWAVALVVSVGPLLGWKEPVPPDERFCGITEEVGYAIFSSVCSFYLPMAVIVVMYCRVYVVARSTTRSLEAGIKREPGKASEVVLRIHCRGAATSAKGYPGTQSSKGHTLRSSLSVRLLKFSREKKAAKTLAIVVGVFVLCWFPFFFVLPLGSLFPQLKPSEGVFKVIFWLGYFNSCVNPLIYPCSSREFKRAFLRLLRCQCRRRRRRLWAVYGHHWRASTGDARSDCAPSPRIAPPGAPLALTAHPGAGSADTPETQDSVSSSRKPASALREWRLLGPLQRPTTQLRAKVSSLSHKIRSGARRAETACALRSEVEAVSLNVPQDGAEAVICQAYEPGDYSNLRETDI
Experimental: Additionally, binding affinity against the pharmacologically defined α-1A adrenoreceptor (rat submaxillary gland) was measured.
as §1, §2, §3, §4

[3] = cloned hamster α-1b in LTK cells, [3H]prazosin 0.2 nM, read-out: Radioligand Binding (Ki; nM) 1b (Hamster)
[4] = cloned rat α-1d in LTK cells, [3H]prazosin 0.2 nM, read-out: Radioligand Binding (Ki; nM) 1d (Rat)

Compound: COc1ccc2c(n1)sc1c(=O)n(CCCCN3C[C@@H]4COc5cccc(OC)c5[C@@H]4C3)c(=O)[nH]c12 [Example 33, hydrochloride]
- Ki [1, 3]: 10.5 nM
- Ki [2, 4]: 0.701 nM

Compound: COc1cc2[nH]c(=O)n(CCN3CC[C@H]4c5c(OC)cccc5OC[C@@H]4C3)c(=O)c2cc1OC (relative stereo) [Example 91, 3-[2-((±)-trans-10-Methoxy-1,3,4,4a,5,10b-hexahydro-2H-[1]-benzopyrano[3,4-c]pyrido-3-yl)ethyl]-6,7-dimethoxy-quinazoline-2,4(1H,3H)-dione hydrochloride]
- Ki [1, 3]: 1.46 nM
- Ki [2, 4]: 0.495 nM

Compound: COc1cccc2c1[C@@H]1CCN(CCCCn3c(=O)[nH]c4c(sc5ccccc54)c3=O)C[C@H]1CO2 (relative stereo) [Example 87, 3-[4-((±)-trans-10-Methoxy-1,3,4,4a,5,10b-hexahydro-2H-[1]-benzopyrano[3,4-c]pyrido-3-yl)butyl]-[1]-benzthieno[3,2-d]pyrimidine-2,4(1H,3H)-dione hydrochloride]
- Ki [1]: 2.86 nM
- Ki [2]: 0.704 nM

Compound: COc1cccc2c1[C@@H]1CCN(CCCCn3c(=O)[nH]c4c(sc5cccnc54)c3=O)C[C@H]1CO2 (relative stereo) [Example 88, 3-[4-((±)-trans-10-Methoxy-1,3,4,4a,5,10b-hexahydro-2H-[1]-benzopyrano[3,4-c]pyrido-3-yl)butyl]-pyrido[2',3':4,5]thieno[3,2-d]pyrimidine-2,4(1H,3H)-dione hydrochloride]
- Ki [1]: 0.791 nM
- Ki [2]: 0.259 nM

Reference: patent US5891882A, “Benzopyranopyrrole and benzopyranopyridine α-1 adenergic compounds” (priority 1997, dated 1999)
